These results are taken from PMC3701073, “The Mode of Inhibitor Binding to Peptidyl-tRNA Hydrolase: Binding Studies and Structure Determination of Unbound and Bound Peptidyl-tRNA Hydrolase from Acinetobacter baumannii” (PLoS ONE, 2013).

This assay deals with T1, peptidyl-tRNA hydrolase from Acinetobacter baumannii (AbPth) (Acinetobacter baumannii, UniProt D0C9L6).
T1 construct: gene pth; full length, 193 residues (Met1-Ala193), N-terminal 6xHis tag (pET-28a, NdeI/XhoI; cleavage not mentioned), E. coli BL21(DE3)
T1 sequence (D0C9L6 1-193): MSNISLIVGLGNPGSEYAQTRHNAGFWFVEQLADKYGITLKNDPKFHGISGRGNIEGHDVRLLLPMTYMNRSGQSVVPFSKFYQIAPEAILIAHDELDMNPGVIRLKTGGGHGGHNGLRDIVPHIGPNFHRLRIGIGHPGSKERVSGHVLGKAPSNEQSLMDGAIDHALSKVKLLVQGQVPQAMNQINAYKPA
Put plainly: intrinsic fluorescence quenching (Scatchard). It counts as binding.

`Nc1ccn([C@@H]2O[C@H](CO)[C@@H](O)[C@H]2O)c(=O)n1` [cytidine] displayed a Kd of 4.79 nM. Take `O=c1ccn([C@@H]2O[C@H](CO)[C@@H](O)[C@H]2O)c(=O)[nH]1` [uridine]: the Kd was ~2.11 nM.
